Laboratory results reported in ChEMBL document CHEMBL1158106, “Penifulvins B-E and a silphinene analogue: sesquiterpenoids from a fungicolous isolate of Penicillium griseofulvum” (J Nat Prod, 2006).
Calls of active or inactive are those of the source. The rule behind the calls is not given here.

How the values were obtained:
Assay type in all cases: functional, organism-based
Aspergillus flavus = assay: Antifungal activity against Aspergillus flavus NRRL 6541 at 100 ug/disk by agar disk diffusion assay
Bacillus subtilis = assay: Antibacterial activity against Bacillus subtilis ATCC 6051 at 100 ug/disk by agar disk diffusion assay
Staphylococcus aureus = assay: Antibacterial activity against Staphylococcus aureus ATCC 29213 at 100 ug/disk by agar disk diffusion assay
Candida albicans = assay: Antifungal activity against Candida albicans ATCC 14053 at 100 ug/disk by agar disk diffusion assay
Spodoptera frugiperda = assay: Insecticidal activity against Spodoptera frugiperda at 100 ug/disk

Row | Structure (SMILES) | Activity (Aspergillus flavus) | Activity (Bacillus subtilis) | Activity (Staphylococcus aureus) | Activity (Candida albicans) | Activity (Spodoptera frugiperda)
1 | C[C@@]1(CO)C[C@]2(C)CC=C[C@]23[C@H](C(=O)O)CC[C@@H]13 | inactive | inactive | inactive | inactive | inactive
2 | C[C@@]1(CO)C[C@]2(C)CC(=O)O[C@H]3OC(=O)[C@@H]4CC[C@@H]1[C@]342 | inactive | inactive | inactive | inactive | inactive
3 | CC1(C)C[C@]2(C)CC(=O)O[C@H]3OC(=O)[C@@H]4CC[C@@H]1[C@]342 |  |  |  |  | Active
